The values below come from publication PMC4841542, “New Anti-Inflammatory Metabolites by Microbial Transformation of Medrysone” (PLoS ONE, 2016).

In brackets after ≈: the same amount, converted by molar mass. Entries after “also recorded” stand apart in the source; their conditions may differ. Read-outs that look alike come from different tables or passages of the source.

The subject of one data set is PHA activated T-cells. The data set is described as follows: T-cell proliferation inhibition assay (PBMC, tritiated thymidine). As to conditions: for IC50: T-cell; for Inhibition of T-cell proliferation (in words): PHA activated T-cells. The class given is cell-based, human. On the procedure:
The T-Cell proliferation inhibitory activity of compounds was evaluated by following the reported method of Nielsen et al. (1998) with slight modifications. Peripheral blood mononuclear cells (PBMC) were isolated from healthy human donors with their consent by Ficoll-Hypaque density gradient centrifugation. The study was carried out after approval from independent ethics committee, ICCBS-UoK, No: ICCBS/IEC-008-BC-2015/Protocol/1.0.
The cells were adjusted to a final concentration of 2 × 10^6 cells/mL in 5% FBS (fetal bovine serum) containing RPMI 1640 media and added with 5 μg/mL phytohemagglutinin (PHA) in 96-well round bottom plates. Each compound was added in triplicate using four concentrations (0.2, 1, 5, and 25 μg/mL). Positive control wells contained cells and PHA, whereas cells alone served as a negative control. The plate was incubated in 5% CO2 at 37°C for 72 h, and cells were pulsed with 25 μL of tritiated thymidine (0.5 μci/well). The incubation was continued for further 18 h. The cells were finally harvested on a glass fiber filter, and the plate was read as count per minute (CPM) using β-scintillation counter.

Data set [1] deals with zymosan activated PMNs (human whole blood cells). The experiment in a line: Oxidative burst inhibition assay (luminol-enhanced chemiluminescence, zymosan-activated). In kind it is cell-based. As to conditions: for IC50: Whole blood cell, zymosan activated PMNs / human whole blood, tested at 1, 10, 100 μg/mL, mean ± SD of triplicates. As to the method: Oxidative burst assay was carried out by chemiluminescence technique using luminol as a probe to determine the effect of test compounds on the production of reactive oxygen species (ROS) from phagocytes, employing […] et al. method with slight modifications. […] Louis, MO, USA) and 25 μL ([…]) of luminol (Sigma Chemical Co., St. Louis, MO, USA). HBSS^++ alone was run as a negative control. The level of ROS was measured as RLU (relative light units) with a luminometer (Labsystem Luminoskan RS, Finland). The luminometer was used in repeated scan mode with 50 seconds interval, and one second point measuring time.

Data set [2] deals with TNF-α produced by LPS activated THP-1 cells. The experiment in a line: Cytokine inhibition assay (TNF-α ELISA). In kind it is cell-based, human. Particulars: for inhibition at 25 µg/mL: Homo sapiens, read-out: TNF-α % inhibition. An excerpt:
THP-1 (Human monocytic leukemia cells) was purchased from ECACC (85011428, European Collection of Cell Cultures, UK). The cells were maintained in endotoxin free RPMI-1640 containing 5.5 mmol/L glucose (BioM Laboratories, Chemical Division, Malaysia), 50 μmol/L mercaptoethanol Merck (Damstadt, Germany), 10% FBS (fetal bovine serum), 2 mmol/L L-glutamine (PAA Laboratories, GmbH, Pasching, Austria), 1 mmol/L sodium pyruvate (GIBCO, Grand Island, N.Y., U.S.A.), and 10 mmol/L HEPES (MP Biomedicals, lllkirch, France). Upon reaching 70% confluency, 2.5×10^5 cells/mL cells were plated in 24 well tissue culture plates. The cells were differentiated using 20 ng/mL phorbol myristate acetate (PMA) (SERVA, Heidelberg, Germany) for 24 hours. The cells were stimulated by adding 50 ng/mL of Escherichia coli lipopolysaccharide B (DIFCO Laboratories, U.S.A.) and treated with compound (25 μg/mL). The incubation was continued for 4 hours at 37°C in 5% CO2. The supernatants collected were analyzed for the level of pro-inflammatory cytokine TNF-α, and quantification was performed by human TNF-α kit (R&D Systems, Minneapolis, U.S.A.), according to manufacturer’s instructions.
In general terms: An ELISA detects its analyte on a solid surface through an enzyme-linked reagent.

The mark [3] stands for this setting: Homo sapiens, read-out: IC50, PHA activated T-cells proliferation, human PBMC, 5 μg/mL PHA, tested at 0.2, 1, 5, 25 μg/mL, mean ± SD of triplicates.
[4] abbreviates: human PBMC, 5 μg/mL PHA, tested at 0.2, 1, 5, 25 μg/mL, mean ± SD of triplicates, read-out: IC50, PHA activated T-cells proliferation.

The inhibition is the relative decrease from the control value, in per cent. Take `CC(=O)[C@H]1CC[C@H]2[C@@H]3C[C@@](C)(O)C4=CC(=O)CC[C@]4(C)[C@H]3C(=O)C[C@]12C` [Compound 3, 6β-Hydroxy-6α-methylpregn-4-ene-3,11,20-trione]: the IC50 in the data set with PHA activated T-cells (setting [3]) is 14.6 ± 2.1 µg/mL (≈ 40.7 µM); in data set [1], greater than 100 µg/mL. Moreover, in the data set on PHA activated T-cells, the “Inhibition of T-cell proliferation (in words)” value is listed as “moderate inhibitors”. Further, in data set [2] (THP-1, 4 h), the inhibition at 25 µg/mL was -2.69 ± 5.08%.

`CC(=O)[C@H]1CC[C@H]2[C@@H]3C[C@H](C)C4=CC(=O)CC[C@]4(C)[C@H]3[C@@H](O)C[C@]12C` [Compound 1, 11β-hydroxy-6α-methylpregn-4-ene-3,20-dione, reference compound]: in the data set with PHA activated T-cells, the “Inhibition of T-cell proliferation (in words)” value is on record as “strongly inhibited; also recorded: strong inhibitory activity”. In addition, the IC50 in the data set on PHA activated T-cells (setting [4]) was 2.9 ± 0.04 µg/mL (≈ 8.42 µM); in data set [1] it was greater than 100 µg/mL. Also, the inhibition at 25 µg/mL in data set [2] (compound 25 μg/mL, LPS activated THP-1 cells, 4 h, mean ± SD of triplicates, -ve sign = increase in cytokine level) stood at 30.5 ± 1.69%. For the same molecule, the “Inhibition of TNF-α production (in words)” value in data set [2] (LPS activated THP-1 cells) was “inhibit; also recorded: moderate levels of inhibition”.

On to `C[C@]12C=CC(=O)C=C1CC[C@@H]1[C@@H]2[C@@H](O)C[C@@]2(C)[C@H]1CC[C@]2(O)C(=O)CO` [Prednisolone, reference compound], for which the IC50 with PHA activated T-cells (setting [4]) is less than 3.1 µg/mL.

A word on the melting point: it is the temperature, or range, at which the solid turns liquid. The molecule `CC(=O)[C@@]1(O)CC[C@H]2[C@@H]3C[C@@](C)(O)C4=CC(=O)CC[C@]4(C)[C@H]3C(=O)C[C@@]21C` [Compound 5, 6β,17α-Dihydroxy-6α-methylpregn-4-ene-3,11,20-trione] came in with a melting point of 289 to 291 °C. In addition, the IC50 in the data set on PHA activated T-cells (setting [3]) is 1.2 ± 0.02 µg/mL (≈ 3.2 µM). In the data set on PHA activated T-cells, the “Inhibition of T-cell proliferation (in words)” value is “strongly inhibited; also recorded: strong inhibitory activity”. Also, the IC50 in data set [1] was greater than 100 µg/mL. Besides, the inhibition at 25 µg/mL in data set [2] (THP-1, 4 h) was found to be 6.44 ± 0.21%.

Take `CC(=O)[C@H]1CC[C@@]2(O)[C@@H]3C[C@H](C)C4=CC(=O)CC[C@]4(C)[C@H]3C(=O)C[C@]12C` [Compound 2, 14α-Hydroxy-6α-methylpregn-4-ene-3,11,20-trione]: the melting point lay in the range of 209 to 210 °C. For the same molecule, the IC50 in the data set with PHA activated T-cells (setting [3]) came to 20 ± 0.9 µg/mL (≈ 55.8 µM). Further, in the data set with PHA activated T-cells, the “Inhibition of T-cell proliferation (in words)” value is recorded as “moderate inhibitors”. Also, the IC50 in data set [1] was greater than 100 µg/mL. In data set [2] (THP-1, 4 h), the inhibition at 25 µg/mL is -4.04 ± 0.2%.

`CC(O)C1CCC2C3CC(C)(O)C4=CC(=O)CCC4(C)C3C(=O)CC12C` (stereo not drawn) [Compound 6, 6β,20S-Dihydroxy-6α-methylpregn-4-ene-3,11-dione] came in with a melting point of 229 to 230 °C. In the data set on PHA activated T-cells (setting [3]), the IC50 worked out at 15.2 ± 2.4 µg/mL (≈ 42.2 µM). In addition, the “Inhibition of T-cell proliferation (in words)” value in the data set on PHA activated T-cells is recorded as “moderate inhibitors”. The IC50 in data set [1] is 30.3 ± 8.8 µg/mL. Besides, the “Inhibition of oxidative burst / ROS (in words)” value in data set [1] (zymosan-induced, human whole blood cells / PMNs) is given as “moderate inhibitory activity”. In addition, in data set [2] (THP-1, 4 h), the inhibition at 25 µg/mL is 4.4 ± 9.6%.

`CC(=O)[C@H]1[C@@H](O)C[C@H]2[C@@H]3C[C@H](C)C4=CC(=O)CC[C@]4(C)[C@H]3[C@@H](O)C[C@@]21C` [Compound 7]: the results for the IC50 (with PHA activated T-cells (setting [3]); in data set [1]) were 0.2 to 10.4 µg/mL (≈ 0.555 to 28.8 µM) and greater than 100 µg/mL, respectively. Also, the “Inhibition of T-cell proliferation (in words)” value in the data set with PHA activated T-cells is “strongly inhibited; also recorded: strong inhibitory activity”. Also, in the data set with PHA activated T-cells (human PBMC, 5 μg/mL PHA, tested at 0.2, 1, 5, 25 μg/mL, mean ± SD of triplicates), the “IC50, PHA activated T-cells proliferation” value was less than 0.2 µg/mL. Also, the inhibition at 25 µg/mL in data set [2] (THP-1, 4 h) came out at 28.6 ± 11.5%. Further, in data set [2] (LPS activated THP-1 cells), the “Inhibition of TNF-α production (in words)” value is “inhibit; also recorded: moderate levels of inhibition”.

As for `C[C@H]1C[C@H]2[C@@H]3[C@H](O)C[C@H]([C@@H](C)O)[C@@]3(C)CC(=O)[C@@H]2[C@@]2(C)CCC(=O)C=C12` [Compound 8, 15β,20R-Dihydroxy-6α-methylpregn-4-ene-3,11-dione], the melting point fell in the range of 274 to 275 °C. The IC50 in the data set with PHA activated T-cells (setting [3]) amounted to 10.4 ± 0.42 µg/mL (≈ 28.8 µM). Besides, in the data set on PHA activated T-cells, the “Inhibition of T-cell proliferation (in words)” value is “strongly inhibited; also recorded: strong inhibitory activity”. The IC50 in data set [1] was greater than 100 µg/mL. Further, in data set [2] (THP-1, 4 h), the inhibition at 25 µg/mL is -8.23 ± 2.75%.

As for `CC(C)Cc1ccc(C(C)C(=O)O)cc1` (stereo not shown) [Ibuprofen, reference compound], the IC50 in data set [1] amounted to 2.5 ± 0.6 µg/mL.

`CC(=O)[C@H]1C[C@@H](O)[C@H]2[C@@H]3C[C@H](C)C4=CC(=O)CC[C@]4(C)[C@H]3C(=O)C[C@@]21C` [Compound 4, 15β-Hydroxy-6α-methylpregn-4-ene-3,11,20-trione] yielded a melting point of 185 to 186 °C. In the data set with PHA activated T-cells (setting [3]), the IC50 turned out to be 9.2 ± 0.7 µg/mL (≈ 25.7 µM). Besides, the “Inhibition of T-cell proliferation (in words)” value in the data set on PHA activated T-cells is “strongly inhibited; also recorded: strong inhibitory activity”. In data set [1], the IC50 was greater than 100 µg/mL. Besides, the inhibition at 25 µg/mL in data set [2] (THP-1, 4 h) was -7.49 ± 1.27%.
